We go through 36 molecules from ChEMBL document CHEMBL1201862, “PubChem BioAssay data set” (2004).

Test systems include DMS-114; KM-20L2; M19-MEL; DMS-273; SNB-78; DLD-1; HOP-18; BT-549; RXF 631.
Test in all cases: growth of human tumour cells (NCI), 48 h

SMILES strings stand for the structures.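 48-hour exposure; five concentrations; linearly interpolated endpoints. GI50 = concentration required for 50% inhibition of growth.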 Activity calls are given as the source filed them. Rule as the data show it: active = GI50 up to about 1.1 µM and inactive = higher.

Regarding `CCCCCCCCCC(=O)NC(Cc1ccc(O)cc1)C(=O)NCCCNCCCCNCCCNC(=O)[C@@H](N)CCCN=C(N)N` (some centres not stated), the GI50 with DMS-114 is 61.8 µM (inactive); in the assay on KM-20L2, > 100 µM (inactive); in the assay with M19-MEL, 50.2 µM (inactive); in the assay with DMS-273, 20.9 µM (inactive).

Turning to `CCC(=O)NCC1(c2c[nH]c3ccccc23)SCCS1`, the GI50 was > 100 µM (inactive) with SNB-78; 47.5 µM (inactive) in the assay on DMS-114; > 100 µM (inactive) in the assay on DLD-1; > 100 µM (inactive) in the assay on KM-20L2; > 100 µM (inactive) in the assay with M19-MEL; > 100 µM (inactive) in the assay with DMS-273. Also, in the assay with HOP-18, the GI50 is > 100 µM (inactive).

As to `CC[C@@]1(O)CC(OC2CC(N3CCOCC3)C(O)C(C)O2)c2c(O)c3c(c(O)c2[C@H]1O)C(=O)c1cccc(O)c1C3=O` (some centres not stated), the GI50 was 0.305 µM (active) in the assay with SNB-78; 0.0935 µM (active) in the assay on DMS-114; 0.143 µM (active) with DLD-1; 0.191 µM (active) in the assay on KM-20L2; 0.101 µM (active) in the assay on M19-MEL; 0.0358 µM (active) with DMS-273. The GI50 with HOP-18 was 0.237 µM (active); in the assay on BT-549, 0.0508 µM (active).

With `N/N=c1/nc2n(c3ncccc13)C=CNN2`, the GI50 with RXF 631, with DMS-114, in the assay on DLD-1, in the assay on KM-20L2 and in the assay with DMS-273 was > 100 µM (inactive) throughout.

For `Cc1cc(C)nc(NS(=O)(=O)c2ccc(Nc3c4ccccc4nc4c(C(=O)NCCN(C)C)ccc(Cl)c34)cc2)n1`, the GI50 is 8.3 µM (inactive) in the assay on SNB-78; 1.01 µM (active) in the assay with DMS-114; 3.03 µM (inactive) in the assay with DLD-1; 2.08 µM (inactive) in the assay with KM-20L2; 2.05 µM (inactive) in the assay with M19-MEL.

Consider `CC(=O)Oc1ccc(O)c(O)c1C/C=C(\C)CC/C=C(\C)CC/C=C(\C)CCC=C(C)C` [TETRAPRENYLPHENOLSUILLIN], for which the GI50 in the assay on SNB-78 is 0.272 µM (active); in the assay on DMS-114, 0.35 µM (active); in the assay on DLD-1, 0.34 µM (active); in the assay on KM-20L2, 0.946 µM (active); with M19-MEL, 0.393 µM (active); in the assay on DMS-273 it was 0.246 µM (active). Moreover, the GI50 with HOP-18 is 0.187 µM (active).

Regarding `O=C(Cc1csc(-c2nc(CC(=O)NNc3ccccc3)cs2)n1)NNc1ccccc1`, the GI50 is > 10 µM (inactive) in the assay with RXF 631; > 100 µM (inactive) with SNB-78; 25.6 µM (inactive) in the assay with DMS-114; 49 µM (inactive) in the assay on DLD-1; > 100 µM (inactive) in the assay with KM-20L2; > 100 µM (inactive) in the assay with M19-MEL. The GI50 with DMS-273 was 12.8 µM (inactive); in the assay with HOP-18, > 100 µM (inactive).

For `COc1c(C)cc2c(c1O)C1C3[C@H]4SC[C@@]5(NCCC6=C5NC5C=CC=CC65)C(=O)OCC(c5c6c(c(C)c(OC(C)=O)c54)OCO6)N3[C@@H](O)C(C2)N1C` (some centres not stated), the GI50 in the assay with DMS-114, with DLD-1, in the assay with KM-20L2, in the assay on M19-MEL and in the assay with DMS-273 was < 0.01 µM (active) each time.

Consider `CCOC1=NC(=O)CC(c2ccccc2)S1` (configuration not stated), for which the GI50 in the assay on SNB-78 is > 100 µM (inactive); with DLD-1, 95.5 µM (inactive); in the assay on KM-20L2, > 100 µM (inactive); in the assay with M19-MEL it was > 100 µM (inactive); with DMS-273 it was > 100 µM (inactive).

In the case of `COC(=O)c1cc(=O)nc2cc3cccccc3n12`, the GI50 in the assay with DLD-1, in the assay on KM-20L2, in the assay with M19-MEL and in the assay with HOP-18 was > 100 µM (inactive) in each case.

As to `CC(=O)CCC1(c2ccccc2)OC(=O)C(C#N)=C1c1ccccc1` (configuration not stated), the GI50 in the assay on RXF 631, with SNB-78, in the assay on DMS-114, in the assay with DLD-1, in the assay on KM-20L2 and with M19-MEL was > 100 µM (inactive) throughout. In addition, the GI50 in the assay on DMS-273 was > 100 µM (inactive).

For the molecule `C[C@]12CC/C(=N\O)C=C1CC[C@@H]1C2CC[C@@]2(C)C1CC[C@@H]2OC1CCCCO1` (some centres not stated), the GI50 was 19.1 µM (inactive) with SNB-78; 22 µM (inactive) in the assay on DMS-114; 30.7 µM (inactive) with DLD-1; 14.4 µM (inactive) with KM-20L2; 19.1 µM (inactive) in the assay with M19-MEL; 17.7 µM (inactive) in the assay with DMS-273. The GI50 in the assay on HOP-18 was 16.4 µM (inactive).

Take `CCCCCCC(=O)OC[n+]1ccc2c(C)c3[nH]c4ccccc4c3c(C)c2c1`: the GI50 was 2.54 µM (inactive) in the assay on RXF 631; 1.09 µM (active) in the assay with SNB-78; 1.08 µM (active) with DMS-114; 0.4 µM (active) in the assay on DLD-1; 0.582 µM (active) in the assay on KM-20L2; 1.04 µM (active) in the assay on M19-MEL. Further, the GI50 in the assay on DMS-273 was 0.106 µM (active).

Take `COc1cc2c(cc1OC)-c1cc(OC)c(OC)cc1[C@H]1CN3CCC[C@@]3(O)C=C21`: the GI50 in the assay on SNB-78, with DMS-114, in the assay on DLD-1, with KM-20L2, in the assay with M19-MEL and in the assay with DMS-273 was < 0.0001 µM (active) throughout. For the same molecule, in the assay with HOP-18, the GI50 was < 0.0001 µM (active).

Turning to `NC(CSSCC(N)Cc1ccccc1)Cc1ccccc1` (configuration not stated), the GI50 is > 100 µM (inactive) with SNB-78; 39.2 µM (inactive) in the assay on DMS-114; 49.5 µM (inactive) with DLD-1; 71.1 µM (inactive) with KM-20L2; 49 µM (inactive) in the assay with M19-MEL; > 10 µM (inactive) with DMS-273.

In the case of `COCN1COCN(C)C1=O`, the GI50 in the assay on SNB-78, with DMS-114, in the assay with DLD-1, with KM-20L2, in the assay on M19-MEL and with DMS-273 was > 100 µM (inactive) throughout. Moreover, the GI50 in the assay with HOP-18 is > 100 µM (inactive).

`C[C@@H](NC1CCC[C@@H]1O)c1ccccc1` (some centres not stated): the GI50 with SNB-78, in the assay with DMS-114, with DLD-1, in the assay on KM-20L2, in the assay with M19-MEL and with DMS-273 was > 100 µM (inactive) throughout. The GI50 with HOP-18 is > 100 µM (inactive).

As to `O=C1/C(=N\O)c2ccccc2S1(=O)=O`, the GI50 in the assay with SNB-78, in the assay on DMS-114, in the assay with DLD-1, in the assay with KM-20L2, in the assay with M19-MEL and with DMS-273 was > 100 µM (inactive) in each case. Besides, the GI50 in the assay with HOP-18 was > 100 µM (inactive).

Regarding `Cc1cc(Br)cc(C)c1NC(=O)C(=O)C(C(=O)c1ccncc1)C1OC(=O)c2ccccc21` (configuration not stated), the GI50 with RXF 631, in the assay with SNB-78, in the assay on DMS-114, with DLD-1, in the assay on KM-20L2 and with DMS-273 was > 100 µM (inactive) each time. In addition, the GI50 in the assay with HOP-18 was > 100 µM (inactive).

On to `Cc1cn(C2CC(N(O)Cc3ccccc3)C(CO)O2)c(=O)[nH]c1=O` (configuration not stated), for which the GI50 in the assay with SNB-78, in the assay on DMS-114, in the assay on KM-20L2, in the assay with M19-MEL and in the assay on DMS-273 was > 100 µM (inactive) each time.

Take `CN1CN(C2OC(CO)C(O)C2O)c2nc(N)[nH]c(=O)c21` (configuration not stated): the GI50 in the assay on SNB-78, with DMS-114, in the assay with DLD-1, with KM-20L2, with M19-MEL and with DMS-273 was > 100 µM (inactive) throughout. For the same molecule, the GI50 in the assay on HOP-18 was > 100 µM (inactive).

For `NC1=NS(=O)(=O)Nc2nc(-c3ccc([N+](=O)[O-])cc3)[nH]c21`, the GI50 in the assay on DMS-114, with DLD-1, in the assay on M19-MEL, in the assay with DMS-273 and in the assay with HOP-18 was > 100 µM (inactive) each time.

Take `CCOC(=O)C1(C#N)C(C#N)(C#N)C1(C#N)C#N`: in the assay with BT-549, the GI50 is > 100 µM (inactive).

Consider `CSc1c([S+](C)[O-])[nH]c2cc(Br)cc(Br)c12` (configuration not stated), for which the GI50 with SNB-78 was 19.3 µM (inactive); in the assay on DLD-1, 16.5 µM (inactive); in the assay on M19-MEL, 29.2 µM (inactive); in the assay on DMS-273 it was 16.4 µM (inactive); in the assay with HOP-18, 39.5 µM (inactive).

Consider `O=C(N/N=C(COc1cccc(Cl)c1)\N=C\c1ccncc1)c1ccncc1`, for which, in the assay on BT-549, the GI50 is > 100 µM (inactive).

Turning to `CCC1(CC)C(=O)OC(=O)C1(CC)CC`, in the assay with BT-549, the GI50 was > 100 µM (inactive).

Take `COc1ccc(CSC2=C(C#N)C(=O)NC3(CCCCC3)S2)cc1`: the GI50 with BT-549 is 48.2 µM (inactive).

With `CN(C)CCCNC(=O)c1cc(NC(=O)c2cc(NS(=O)(=O)c3ccc4c(c3)C(=O)c3ccccc3C4=O)cn2C)cn1C`, the GI50 in the assay with BT-549 was 52.7 µM (inactive).

Turning to `CCC[C@H](O)[C@@H](CNc1cc(NC(C)=O)nc(NC(C)=O)n1)N(Cc1ccccc1)Cc1ccccc1`, the GI50 with BT-549 is 16.1 µM (inactive).

For `OC(C#CCN1CCCC1)(c1ccccc1)c1ccccc1Cl` (configuration not stated), the GI50 in the assay with BT-549 was 46.2 µM (inactive).

Regarding `CC(C)Cc1c(C#N)c(C#N)c(N)n1Cc1ccccc1`, the GI50 in the assay on BT-549 is > 100 µM (inactive).

With `C[C@]12CCC3c4ccc(O)cc4CC[C@H]3C1CC(=O)N(CCN1CCCC1)C2=O` (some centres not stated), the GI50 in the assay with BT-549 was > 10 µM (inactive).

As for `O=C(/C(=C\c1ccc(Cl)cc1)c1ccccc1)c1ccccc1`, the GI50 with SNB-78 was > 100 µM (inactive); with DMS-114 it was 21.4 µM (inactive); in the assay with DLD-1, 93.5 µM (inactive); in the assay on HOP-18, > 100 µM (inactive).

On to `COc1cccc2c(NNc3ccc(Cl)cc3)c3ccc([N+](=O)[O-])cc3nc12`, for which the GI50 with BT-549 was 14 µM (inactive).

Turning to `O=C1CC(c2c[nH]c3ccccc23)C(=O)N1` (configuration not stated), the GI50 in the assay on RXF 631, with SNB-78, in the assay with DLD-1, in the assay on KM-20L2, with M19-MEL and in the assay on DMS-273 was > 100 µM (inactive) in each case.

As for `COC(=O)/C(C#N)=C1\CCC(Nc2cccc(C(F)(F)F)c2)N1C` (configuration not stated), the GI50 was > 100 µM (inactive) in the assay with SNB-78; > 10 µM (inactive) with DMS-114; 57.5 µM (inactive) with DLD-1; 56 µM (inactive) with KM-20L2; > 100 µM (inactive) in the assay with HOP-18.
